For experiment [1], the target named is T1, Ba/F3-Flt3 cells (Homo sapiens, UniProt P36888, cells depend on it, form not given).
T1 construct: Ba/F3-flt3 − IL3 pIC50; other: without IL3
T1 sequence (P36888 1-993): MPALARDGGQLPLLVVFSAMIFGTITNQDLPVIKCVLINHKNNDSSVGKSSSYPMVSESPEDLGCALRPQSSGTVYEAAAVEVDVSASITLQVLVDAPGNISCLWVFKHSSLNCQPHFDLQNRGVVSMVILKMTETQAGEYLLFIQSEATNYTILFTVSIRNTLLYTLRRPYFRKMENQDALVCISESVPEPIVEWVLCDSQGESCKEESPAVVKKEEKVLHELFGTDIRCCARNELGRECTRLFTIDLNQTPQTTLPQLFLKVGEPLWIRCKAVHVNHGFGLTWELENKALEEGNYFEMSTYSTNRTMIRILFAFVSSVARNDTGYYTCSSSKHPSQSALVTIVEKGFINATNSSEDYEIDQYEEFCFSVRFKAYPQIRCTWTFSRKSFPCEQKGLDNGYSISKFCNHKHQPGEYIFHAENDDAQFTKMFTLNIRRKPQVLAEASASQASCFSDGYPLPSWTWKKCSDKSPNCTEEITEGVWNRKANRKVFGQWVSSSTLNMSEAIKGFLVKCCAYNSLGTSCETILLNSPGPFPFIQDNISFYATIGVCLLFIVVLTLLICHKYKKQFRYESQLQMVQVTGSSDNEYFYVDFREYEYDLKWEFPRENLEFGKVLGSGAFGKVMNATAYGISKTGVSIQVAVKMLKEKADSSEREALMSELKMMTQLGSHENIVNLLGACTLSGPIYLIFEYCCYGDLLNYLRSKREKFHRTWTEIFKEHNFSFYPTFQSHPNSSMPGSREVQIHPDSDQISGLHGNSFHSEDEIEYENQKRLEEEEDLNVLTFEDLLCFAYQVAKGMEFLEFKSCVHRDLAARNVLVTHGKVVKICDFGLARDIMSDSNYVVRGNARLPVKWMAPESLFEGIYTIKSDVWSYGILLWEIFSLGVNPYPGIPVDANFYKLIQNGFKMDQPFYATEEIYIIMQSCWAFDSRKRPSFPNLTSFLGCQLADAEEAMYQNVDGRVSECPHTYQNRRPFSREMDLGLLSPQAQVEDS
The experiment can be described thus: Ba/F3-Flt3 assay (Alamar Blue). The conditions noted are these: without IL3. The format is cell-based, murine. An excerpt:
(§1) Ba/F3, a murine interleukin-3 dependent pro-B cell line is increasingly popular as a model system for assessing both the potency and downstream signaling of kinase oncogenes, and the ability of small-molecule kinase inhibitors to block kinase activity. Facilitated by their growth properties. Ba/F3 cells have recently been adapted to high throughput assay formats for compound profiling. Further, several published approaches show promise in predicting resistance to small-molecule kinase inhibitors elicited by point mutations interfering with inhibitor binding (Ba/F3 cells and their use in kinase drug discovery; Markus Warmuth, Sungjoon Kim, Xiang-ju Gu, Gang Xia and Francisco Adria'n; Curr Opin Oncol 19:55-60).
(§2) Ba/F3-Flt3 cells (cultured in phenol red free RPMI-1640, 10% A FCS and 50 μg/ml Gentamycin at 37° C. and 5% 002) were plated at a density of 10000 cells in a total volume of 180 μl medium in a black TC-treated sterile 96-well plate (Corning). After 24 hours, drugs in different dilutions were added to a final volume of 200 μl and at a final DMSO concentration of 0.2% prior to incubation at 37° C., and 5% CO2.
(§3) After 24 h, to each well 40 μl Alamar Blue solution (Aldrich) was added and the cells were further incubated for 4 hours at 37° C. Fluorescence (ex. 544, em. 590 nm) was measured using a fluorescence reader (Labsystems) and IC50's were calculated.
(§4) In the condition containing IL3, 10 ng/ml of murine IL3 (PeproTech) was added during compound incubation.

Experiment [2] has as its system Ba/F3-Flt3 cells. The experiment can be described thus: Ba/F3-Flt3 assay (Alamar Blue). The format is cell-based, murine. The note with it: Mus musculus, 24 h; with 10 ng/ml murine IL3; read-out: Ba/F3-flt3 + IL3 pIC50 (converted).
Text: as §1, §2, §3, §4

SMILES strings stand for the structures.

Turning to `CC(C)Oc1cc(NC(=O)NCC(F)(F)F)cc(-c2cnc3cc(-c4ncc(F)c(N)n4)ccn23)c1` [Compound F-1, 1-{3-[7-(4-Amino-5-fluoro-pyrimidin-2-yl)-imidazo[1,2-a]pyridin-3-yl]-5-isopropoxy-phenyl}-3-(2,2,2-trifluoro-ethyl)-urea], at Ba/F3-Flt3 cells [1], the “Ba/F3-flt3 − IL3 pIC50” value is listed as under 5. Further, in the experiment with Ba/F3-Flt3 cells [2], the IC50 was over 10 µM.

As for `CC(C)Oc1cc(NC(=O)NCC(F)(F)F)cc(-c2cnc3cc(-c4ncccn4)ccn23)c1` [Compound F-2, 1-[3-Isopropoxy-5-(7-pyrimidin-2-yl-imidazo[1,2-a]pyridin-3-yl)-phenyl]-3-(2,2,2-trifluoro-ethyl)-urea], the “Ba/F3-flt3 − IL3 pIC50” value on Ba/F3-Flt3 cells [1] is on record as under 5. Further, the IC50 in the experiment on Ba/F3-Flt3 cells [2] was over 10 µM.

Regarding `Cc1nc(-c2ccn3c(-c4cc(NC(=O)NCC(F)(F)F)cc(OC(C)C)c4)cnc3c2)ccc1F` [Compound F-3, 1-{3-[7-(5-Fluoro-6-methyl-pyridin-2-yl)-imidazo[1,2-a]pyridin-3-yl]-5-isopropoxy-phenyl}-3-(2,2,2-trifluoro-ethyl)-urea], on Ba/F3-Flt3 cells [1], the “Ba/F3-flt3 − IL3 pIC50” value is under 5. Besides, the IC50 with Ba/F3-Flt3 cells [2] was over 10 µM.

With `Cc1nc(N)cc(-c2ccn3c(-c4cc(NC(=O)NCC(F)(F)F)cc(OC(C)C)c4)cnc3c2)n1` [Compound F-4, 1-{3-[7-(6-Amino-2-methyl-pyrimidin-4-yl)-imidazo[1,2-a]pyridin-3-yl]-5-isopropoxy-phenyl}-3-(2,2,2-trifluoro-ethyl)-urea], the “Ba/F3-flt3 − IL3 pIC50” value on Ba/F3-Flt3 cells [1] is under 5. The IC50 in the experiment on Ba/F3-Flt3 cells [2] was over 10 µM.

Regarding `Cc1nnc(-c2ccn3c(-c4cc(NC(=O)NCC(F)(F)F)cc(OC(C)C)c4)cnc3c2)o1` [Compound F-5, 1-{3-Isopropoxy-5-[7-(5-methyl-[1,3,4]oxadiazol-2-yl)-imidazo[1,2-a]pyridin-3-yl]-phenyl}-3-(2,2,2-trifluoro-ethyl)-urea], the “Ba/F3-flt3 − IL3 pIC50” value on Ba/F3-Flt3 cells [1] is on record as under 5. In addition, the IC50 in the experiment on Ba/F3-Flt3 cells [2] was over 10 µM.

Consider `CC(C)Oc1cc(NC(=O)NCC(F)(F)F)cc(-c2cnc3cc(C(=O)C4CC4)ccn23)c1` [Compound F-6, 1-[3-(7-Cyclopropanecarbonyl-imidazo[1,2-a]pyridin-3-yl)-5-isopropoxy-phenyl]-3-(2,2,2-trifluoro-ethyl)-urea], for which the “Ba/F3-flt3 − IL3 pIC50” value at Ba/F3-Flt3 cells [1] is recorded as under 5. Besides, the IC50 with Ba/F3-Flt3 cells [2] was over 10 µM.

For the molecule `COCc1cc(NC(=O)NCC(F)(F)F)cc(-c2cnc3cc(-c4nnc(C)o4)ccn23)c1` [Compound F-7, 1-{3-Methoxymethyl-5-[7-(5-methyl-[1,3,4]oxadiazol-2-yl)-imidazo[1,2-a]pyridin-3-yl]-phenyl}-3-(2,2,2-trifluoro-ethyl)-urea], on Ba/F3-Flt3 cells [1], the “Ba/F3-flt3 − IL3 pIC50” value is reported as under 5. The IC50 in the experiment on Ba/F3-Flt3 cells [2] is over 10 µM.

For the molecule `CC(C)Oc1cc(NC(=O)NCC(F)(F)F)cc(-c2cnc3cc(-c4ccnc(C(F)(F)F)n4)ccn23)c1` [Compound F-8, 1-{3-Isopropoxy-5-[7-(2-trifluoromethyl-pyrimidin-4-yl)-imidazo[1,2-a]pyridin-3-yl]-phenyl}-3-(2,2,2-trifluoro-ethyl)-urea], the “Ba/F3-flt3 − IL3 pIC50” value at Ba/F3-Flt3 cells [1] is under 5. For the same molecule, the IC50 in the experiment on Ba/F3-Flt3 cells [2] is over 10 µM.

On to `COCc1cc(NC(=O)NCC(F)(F)F)cc(-c2cnc3cc(-c4ccnc(C(F)(F)F)n4)ccn23)c1` [Compound F-9, 1-{3-Methoxymethyl-5-[7-(2-trifluormethyl-pyrimidin-4-yl)-imidazo[1,2-a]pyridin-3-yl]-phenyl}-3-(2,2,2-trifluoro-ethyl)-urea], for which the “Ba/F3-flt3 − IL3 pIC50” value on Ba/F3-Flt3 cells [1] was under 5. Also, the IC50 with Ba/F3-Flt3 cells [2] is over 10 µM.

Consider `CCNC(=O)Nc1cc(OC(C)C)cc(-c2cnc3cc(-c4nncs4)ccn23)c1` [Compound F-10, 1-Ethyl-3-[3-isopropoxy-5-(7-[1,3,4]thiadiazol-2-yl-imidazo[1,2-a]pyridin-3-yl)-phenyl]-urea], for which the “Ba/F3-flt3 − IL3 pIC50” value at Ba/F3-Flt3 cells [1] was found to be 5.04. For the same molecule, in the experiment with Ba/F3-Flt3 cells [2], the IC50 was over 10 µM.

For the molecule `Cc1nnc(-c2ccn3c(-c4cc(NC(=O)NCC(F)(F)F)cc(OC5CCC5)c4)cnc3c2)o1` [Compound F-11, 1-{3-Cyclobutoxy-5-[7-(5-methyl-[1,3,4]oxadiazol-2-yl)-imidazo[1,2-a]pyridin-3-yl]-phenyl}-3-(2,2,2-trifluoro-ethyl)-urea], at Ba/F3-Flt3 cells [1], the “Ba/F3-flt3 − IL3 pIC50” value is under 5. In addition, the IC50 in the experiment with Ba/F3-Flt3 cells [2] is over 10 µM.

`CC(C)Oc1cc(NC(=O)NCC(F)(F)F)cc(-c2cnc3cc(N4CCC(F)(F)CC4)ccn23)c1` [Compound F-13, 1-{3-[7-(4,4-Difluoro-piperidin-1-yl)-imidazo[1,2-a]pyridin-3-yl]-5-isopropoxy-phenyl}-3-(2,2,2-trifluoro-ethyl)-urea]: the “Ba/F3-flt3 − IL3 pIC50” value at Ba/F3-Flt3 cells [1] is under 5. For the same molecule, the IC50 in the experiment on Ba/F3-Flt3 cells [2] is over 10 µM.

`CCOc1cc(NC(=O)NCC(F)(F)F)cc(-c2cnc3cc(-c4nnc(C)o4)ccn23)c1` [Compound F-15, 1-{3-Ethoxy-5-[7-(5-methyl-[1,3,4]oxadiazol-2-yl)-imidazo[1,2-a]pyridin-3-yl]-phenyl}-3-(2,2,2-trifluoro-ethyl)-urea]: the “Ba/F3-flt3 − IL3 pIC50” value at Ba/F3-Flt3 cells [1] is on record as under 5. In addition, in the experiment on Ba/F3-Flt3 cells [2], the IC50 is over 10 µM.

With `CCOc1cc(NC(=O)NCC(F)(F)F)cc(-c2cnc3cc(-c4ccnc(C(F)(F)F)n4)ccn23)c1` [Compound F-16, 1-{3-Ethoxy-5-[7-(2-trifluoromethyl-pyrimidin-4-yl)-imidazo[1,2-a]pyridin-3-yl]-phenyl}-3-(2,2,2-trifluoro-ethyl)-urea], the “Ba/F3-flt3 − IL3 pIC50” value on Ba/F3-Flt3 cells [1] is recorded as under 5. In the experiment on Ba/F3-Flt3 cells [2], the IC50 is over 10 µM.

As for `CC(C)Oc1cc(NC(=O)NCC(F)(F)F)cc(-c2cnc3cc(OCCO)ccn23)c1` [Compound F-17, 1-{3-[7-(2-Hydroxy-ethoxy)-imidazo[1,2-a]pyridin-3-yl]-5-isopropoxy-phenyl}-3-(2,2,2-trifluoro-ethyl)-urea], the “Ba/F3-flt3 − IL3 pIC50” value at Ba/F3-Flt3 cells [1] is listed as under 5. Moreover, the IC50 with Ba/F3-Flt3 cells [2] was over 10 µM.

On to `CC(C)Oc1cc(NC(=O)NCC(F)(F)F)cc(-c2cnc3cc(OCCCO)ccn23)c1` [Compound F-18, 1-{3-[7-(3-Hydroxy-propoxy)-imidazo[1,2-a]pyridin-3-yl]-5-isopropoxy-phenyl}-3-(2,2,2-trifluoro-ethyl)-urea], for which, at Ba/F3-Flt3 cells [1], the “Ba/F3-flt3 − IL3 pIC50” value is given as under 5. Besides, in the experiment with Ba/F3-Flt3 cells [2], the IC50 is over 10 µM.

For the molecule `CC(C)Oc1cc(NC(=O)NCC(F)(F)F)cc(-c2cnc3cc(-c4nncs4)ccn23)c1.Cl` [Compound F-19, 1-[3-Isopropoxy-5-(7-[1,3,4]thiadiazol-2-yl-imidazo[1,2-a]pyridin-3-yl)-phenyl]-3-(2,2,2-trifluoro-ethyl)-urea], at Ba/F3-Flt3 cells [1], the “Ba/F3-flt3 − IL3 pIC50” value was under 5. The IC50 with Ba/F3-Flt3 cells [2] is over 10 µM.

For the molecule `Cc1nnc(-c2ccn3c(-c4cc(NC(=O)NCC(F)(F)F)cc(OC(C)C)c4)cnc3c2)s1.Cl` [Compound F-20, 1-{3-Isopropoxy-5-[7-(5-methyl-[1,3,4]thiadiazol-2-yl)-imidazo[1,2-a]pyridin-3-yl]-phenyl}-3-(2,2,2-trifluoro-ethyl)-urea], at Ba/F3-Flt3 cells [1], the “Ba/F3-flt3 − IL3 pIC50” value is on record as under 5. Besides, the IC50 with Ba/F3-Flt3 cells [2] is over 10 µM.

Turning to `CCNC(=O)Nc1cc(OC(C)C)cc(-c2cnc3cc(-c4nnc(C)s4)ccn23)c1` [Compound F-23, 1-Ethyl-3-{3-isopropoxy-5-[7-(5-methyl-[1,3,4]thiadiazol-2-yl)-imidazo[1,2-a]pyridin-3-yl]-phenyl}-urea], the “Ba/F3-flt3 − IL3 pIC50” value at Ba/F3-Flt3 cells [1] is reported as under 5. Also, in the experiment on Ba/F3-Flt3 cells [2], the IC50 is over 10 µM.

As to `CC(C)Oc1cc(NC(=O)NCC(F)(F)F)cc(-c2cnc3cc(-c4nccc(C(C)(C)CO)n4)ccn23)c1` [Compound F-27, 1-(3-{7-[4-(2-Hydroxy-1,1-dimethylethyl)-pyrimidin-2-yl]-imidazo[1,2-a]pyridin-3-yl}-5-isopropoxy-phenyl)-3-(2,2,2-trifluoro-ethyl)-urea], the “Ba/F3-flt3 − IL3 pIC50” value on Ba/F3-Flt3 cells [1] was under 5. Also, in the experiment on Ba/F3-Flt3 cells [2], the IC50 was over 10 µM.

The values are drawn from patent US8722687B2, “Imidazo [1,2-A]pyridine derivatives as FGFR kinase inhibitors for use in therapy” (Astex Therapeutics Ltd, priority 2009, dated 2014).
